In paper PMC4193777 (PLoS ONE, 2014):

Legend:
FPR2 = molecular target: T1, FPR2 (Homo sapiens, UniProt P25090); assay: Neutrophil NADPH-oxidase activity (superoxide release), direct activation of naive cells; assay type: cell-based
T1 construct: Human peripheral blood neutrophils were isolated from buffy coats from healthy blood donors; endogenous in cells; host or cells: primary human peripheral blood neutrophils from buffy coats of healthy donors
T1 sequence (P25090 1-351): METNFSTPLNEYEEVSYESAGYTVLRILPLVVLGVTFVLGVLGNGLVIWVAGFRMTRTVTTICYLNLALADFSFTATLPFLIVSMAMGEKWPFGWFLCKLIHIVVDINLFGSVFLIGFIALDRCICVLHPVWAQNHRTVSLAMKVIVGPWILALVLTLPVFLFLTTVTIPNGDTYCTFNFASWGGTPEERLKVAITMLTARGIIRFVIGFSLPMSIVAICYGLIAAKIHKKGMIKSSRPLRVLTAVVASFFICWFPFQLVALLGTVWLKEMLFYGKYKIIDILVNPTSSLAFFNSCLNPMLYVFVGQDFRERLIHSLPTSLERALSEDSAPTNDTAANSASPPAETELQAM
Experimental: (§1) Human peripheral blood neutrophils were isolated from buffy coats from healthy blood donors using dextran sedimentation and Ficoll-Paque gradient centrifugation as described. The remaining erythrocytes were disrupted by hypotonic lysis, the neutrophils were washed twice, resuspended in KRG, and stored on melting ice until use. This isolation procedure permits cells to be purified with minimal granule mobilization.
(§2) The NADPH-oxidase activity was determined using isoluminol-enhanced chemiluminescence (CL), [27]. The CL activity was measured in a six-channel Biolumat LB 9505 (Berthold Co., Wildbad, Germany), using disposable 4-ml polypropylene tubes with a 900 µl reaction mixture containing 10^5 cells, isoluminol (2×10^−5 M) and HRP (2 U). The tubes were equilibrated in the Biolumat for 5 min at 37°C, after which the stimulus (100 µl) was added and the light emission was recorded continuously. Receptor desensitized cells were defined as naïve (non-desensitized) cells that had first been stimulated with a receptor specific agonist and returned to baseline after the resulting release of superoxide before a second stimulation. When reactivation experiments were performed with antagonists, the antagonists were added to the CL reaction mixture 1 min before the second stimulation. For studies with signaling inhibitors, cells were incubated with inhibitors at 37°C for 15 min before agonist addition. Control cells received no treatment but were incubated under the same conditions.
Data analysis was performed using GraphPad Prism 6.0 (Graphpad Software, San Diego, CA, USA).
Representative experiments out of more than five are shown and an arrow indicates the time point for agonist addition. Abscissa: Time of study (min); ordinate: Superoxide production (Mcpm).

desensitized FPR2 = assay: PAF-induced cross-talk reactivation of desensitized FPR2 (superoxide); assay type: cell-based, human
Experimental: as §1, §2
Figure 3 PAF- or ATP-stimulation induces reactivation of desensitized FPR2. […] A representative experiment is shown and the time point for addition of FPR2 agonists is indicated by the first arrow, the time point for PAF stimulation (100 nM final concentration) with the second arrow. The control PAF response induced in naïve (non-desensitized) neutrophils is shown for comparison (dotted line). Abscissa: Time of study (min); ordinate: Superoxide production (Mcpm). B. Naïve neutrophils were first desensitized with F2Pal10 (F2Pal10des., 500 nM final concentration) and subsequently stimulated with PAF (100 nM final concentration; time point for PAF addition is indicated by an arrow). The FPR2 specific inhibitor PBP10 (1 µM) was added 1 min prior to PAF stimulation (dashed line) and the release of superoxide anions was recorded continuously. The PAF responses induced in naïve cells (solid line), as well as in F2Pal10-desensitized cells receiving no PBP10 (dotted line), are shown for comparison. Abscissa: Time of study (min); ordinate: Superoxide production (Mcpm). C. Effect of calyculin A on receptor cross-talk induced FPR2 reactivation. Cells desensitized with F2Pal10 (F2Pal10des.) were incubated with the phosphatase inhibitor calyculin A (60 nM; solid line) or buffer as control (dashed line) for 10 min at 37°C prior to PAF stimulation (100 nM). The release of superoxide anions was recorded continuously. Abscissa: Time of study (min); ordinate: Superoxide production (Mcpm). […] Abscissa: Time of study (min); ordinate: Superoxide production (Mcpm). […] The results are given as peak values of superoxide production following addition of ATPγS (mean+SEM; n = 3).
Figure 4 More pronounced reactivation was induced by PAF in neutrophils desensitized by the pepducin F2Pal10. […] The results are given as peak values of superoxide production from three separate experiments for the first stimulation with FPR2 agonists (mean+SEM, n = 3). […]

For `CSCC[C@H](NC(=O)[C@@H](NC(=O)[C@H](CCSC)NC(=O)[C@H](Cc1ccc(O)cc1)NC(=O)[C@H](CCCCN)NC(=O)[C@@H](N)Cc1c[nH]c2ccccc12)C(C)C)C(N)=O` [WKYMVM], which “concentration inducing comparable sub-maximum response, pair 1” value (FPR2; first stimulation of naive neutrophils, 10 nM WKYMVM≈100 nM F2Pal10) is on record?
The value was 10 nM.

What about the “concentration inducing comparable sub-maximum response, pair 2” value (FPR2; first stimulation of naive neutrophils, 25 nM WKYMVM≈250 nM F2Pal10) of the same compound?
Its value is 25 nM.

What about the “concentration inducing comparable sub-maximum response, pair 3” value (FPR2; first stimulation of naive neutrophils, 40 nM WKYMVM≈500 nM F2Pal10) of the same compound?
The value was 40 nM.

And the “time to peak of radical production” value (FPR2; upon stimulation of neutrophils)?
The value was “around one”.

What about the “type of agonism, cross-talk reactivation” value (desensitized FPR2; PAF- and ATP-induced cross-talk reactivation of desensitized FPR2) of the same compound?
The value was “partial agonist”.

And the “priming of PAF response in desensitized neutrophils” value (desensitized FPR2; desensitizing agent F2Pal10 500 nM or WKYMVM 40 nM, PAF 100 nM)?
Its value is “primed in their response to PAF”.
